Data published in patent US4238390A, “Synthesis and biological activity of [D-Thr^2, Δ^3 Pro^5 ]-enkephalinamide” (Hoffmann-La Roche Inc., priority 1979, dated 1980).
Square brackets hold non-standard residues; d marks the D form. Peptide text beside a SMILES is read from it. ΔPro = O=C(O)[C@@H]1C=CCN1

Columns and labels:
5-HTP Diarrhea = assay: Anti-diarrhea activity against 5-HTP diarrhea in CD-1 mice (comparative tests); assay type: in vivo, Male CD-1 mice; settings: for anti-diarrhea activity (in words): intravenously at a dose of 132 μ moles/kg
Method: (§1) The anti-diarrhea ED50 values were determined using a computer program "ED50" based on the probit method of D. J. Finney, "Probit Analysis", Cambridge University Press, Cambridge, Great Britain (1971). The average percent inhibition obtained at each dose level of [D-Thr^2, Δ^3 Pro^5 ]-enkephalinamide was used as the response.
Male CD-1 mice were obtained from Charles River, Inc., Wilmington, Massachusetts, and weighted between 18 and 25 grams at the time of use.
All compounds with the exception of 5-HTP were dissolved in sterile 0.9% sodium chloride solution. Distilled water was used as the vehicle for 5-HTP. All compounds were administered to the mice using a constant dosage volume of 0.2 ml/20 gms of body weight.
In the experiment involving naloxone HCl, it or the vehicle were given 5 minutes prior to the administration of β-endorphin.
The amount of diarrhea produced by 5-HTP was determined as follows. Immediately following the administration of 5-HTP, the mice were individually housed in open-bottomed wire cages of a width and length of 8.5 cm and a height of 7.5 cm, resting on preweighed plastic sheets. The mice were removed from the cages 30 minutes after receiving 5-HTP, and any visible urinary discharge present on the plastic sheet was blotted dry. The sheets were then reweighed. The weight increment was considered to represent fecal weight.

Guinea Pig Ileum = assay: Opiate activity in guinea pig ileum assay; assay type: cell-based
Method: The opiate activity of [2-D-threonine, 5-(3,4-dehydroproline)]-enkephalinamide was measured according to the method of H. W. Kosterelitz, R. J. Lydon and H. A. Watt, British Journal of Pharmacology, volume 39 (1970), pp. 398-413. The results of the assay are shown in Table II and are compared with the opiate activities for human β-endorphin and Met-enkephaline.

[1] = cited from earlier work; for analgesic activity (in words): prior-art report
[2] = tested on: 5-hydroxytryptophan-induced diarrhea; assay: Anti-diarrhea activity against 5-hydroxytryptophan-induced diarrhea in CF-1 mice; assay type: in vivo, Male CF-1 mice; settings: for Mean Fecal Wt. (mg) + S.E.: 30 s before 10 mg/kg 5-HTP ip, 30-minute test period
Method: Male CF-1 mice were used. The mice were housed at least one week prior to use. At the time of use, the mice were 49 days of age and weighed between 21-25 grams. The mice received, intravenously, vehicle, or the indicated amounts of, [D-Thr^2, Δ^3 Pro^5 ]enkephalinamide dissolved in sterile 0.9% sodium chloride. Thirty seconds later, 10 mg/kg of DL-5-hydroxytryptophan was administered intraperitoneally using distilled water as the vehicle. The mice were then immediately placed in individual open-bottomed wire cages resting on preweighed parafilm sheets. The mice were removed from their cages 30 minutes after receiving the DL-5-hydroxytryptophan. Any fecal material adhering to the sides of the wire cage was collected and placed on the parafilm sheets, and any visible urine on the sheets was blotted dry. The sheets were weighed, and the weight increment was considered to represent the amount of feces discharged during the 30-minute test period.
as §1

[3] = iv, 30 seconds prior to 10 mg/kg 5-HTP ip

## Leu-Enkephalin
5-HTP Diarrhea; 66 μmoles/kg iv
  % Inhibition of 5-HTP Diarrhea ± S.E.: 0.0 ± 13.1%
5-HTP Diarrhea; 132 μmoles/kg iv
  % Inhibition of 5-HTP Diarrhea ± S.E.: 10.4 ± 7.7%
5-HTP Diarrhea
  anti-diarrhea activity (in words): only weak anti-diarrhea activity
5-HTP Diarrhea; [3]
  Anti-Diarrhea ED50 ± S.E.: > 132 µmol/kg

## Met-Enkephalin
Guinea Pig Ileum
  IC50: 124 nM
Guinea Pig Ileum; human β-endorphin = 100
  Relative Potency: 25
5-HTP Diarrhea; 66 μmoles/kg iv
  % Inhibition of 5-HTP Diarrhea ± S.E.: 21.3 ± 15.9%
5-HTP Diarrhea; 132 μmoles/kg iv
  % Inhibition of 5-HTP Diarrhea ± S.E.: 23.7 ± 9.6%
5-HTP Diarrhea
  anti-diarrhea activity (in words): only weak anti-diarrhea activity
5-HTP Diarrhea; [3]
  Anti-Diarrhea ED50 ± S.E.: > 132 µmol/kg

## [D-Met^2, Pro^5 ]-enkephalinamide [D-Met^2 -Pro^5 -Enkephalin-Amide]
5-HTP Diarrhea; 0.20 μmoles/kg iv
  % Inhibition of 5-HTP Diarrhea ± S.E.: 1.7 ± 13.2%
5-HTP Diarrhea; 0.60 μmoles/kg iv
  % Inhibition of 5-HTP Diarrhea ± S.E.: 32.3 ± 13.4%
5-HTP Diarrhea; 1.20 μmoles/kg iv
  % Inhibition of 5-HTP Diarrhea ± S.E.: 36.9 ± 11.0%
5-HTP Diarrhea; 2.40 μmoles/kg iv
  % Inhibition of 5-HTP Diarrhea ± S.E.: 66.0 ± 7.6%
5-HTP Diarrhea; 4.30 μmoles/kg iv
  % Inhibition of 5-HTP Diarrhea ± S.E.: 88.6 ± 7.7%
5-HTP Diarrhea; [3]
  Anti-Diarrhea ED50 ± S.E.: 1.38 ± 0.310 µmol/kg
[1]
  analgesic activity (in words): potent analgesic agent

## [D-Met^2, Thz^5 ]-enkephalinamide
[1]
  analgesic activity (in words): potent analgesic agents

## [D-Ala^2, MePhe^4, MetO^5 -ol] enkephalin
[1]; Roemer et al., Nature 268, 547 (1977)
  oral activity (in words): orally active
[1]
  analgesic activity (in words): most potent analgesic of the group

## C[C@H](O)[C@@H](NC(=O)[C@@H](N)Cc1ccc(O)cc1)C(=O)NCC(=O)N[C@@H](Cc1ccccc1)C(=O)N1CC=C[C@H]1C(N)=O [[D-Thr^2, Δ^3 Pro^5]-enkephalinamide, [2-D-threonine, 5-(3,4-dehydroproline)]-enkephalinamide] (H-Y[dT]GF[ΔPro]-NH2)
Guinea Pig Ileum
  IC50: 9.3 nM
Guinea Pig Ileum; human β-endorphin = 100, 5-(3,4-dehydroproline)]-enkephalinamide
  Relative Potency: 330
Guinea Pig Ileum; human β-endorphin = 100, listed as Tyr-D-Thr-Gly-Phe-Δ Pro-NH2
  Relative Potency: 336
[2]; 1.2 μm/kg iv
  Mean Fecal Wt. (mg) + S.E.: 117.3 ± 11.06 mg
[2]; 1.2 μm/kg iv, 5-HTP 10 mg/kg ip
  % Inhibition: 34.6%
[2]; 3.60 μm/kg iv
  Mean Fecal Wt. (mg) + S.E.: 80.1 ± 22.43 mg
[2]; 3.60 μm/kg iv, 5-HTP 10 mg/kg ip
  % Inhibition: 55.3%
[2]; 12.05 μm/kg iv
  Mean Fecal Wt. (mg) + S.E.: 49.8 ± 14.44 mg
[2]; 12.05 μm/kg iv, 5-HTP 10 mg/kg ip
  % Inhibition: 72.2%
[2]; 24.10 μm/kg iv
  Mean Fecal Wt. (mg) + S.E.: 37.9 ± 12.81 mg
[2]; 24.10 μm/kg iv, 5-HTP 10 mg/kg ip
  % Inhibition: 78.9%
[2]; by intravenous injection
  inhibition of 5-hydroxytryptophan-induced diarrhea (in words): potent agent
[2]; iv, probit method, 5-HTP 10 mg/kg ip
  ED50 μm/kg + S.E.: 2.9 ± 1.74 μm/kg

## CN1CC[C@]23c4c5ccc(O)c4O[C@H]2[C@@H](O)C=C[C@H]3[C@H]1C5.O=S(=O)(O)O [Morphine Sulfate]
5-HTP Diarrhea; intravenously or subcutaneously administered
  prevention of 5-HTP diarrhea (in words): effective in preventing this diarrhea

## Human β-Endorphin
Guinea Pig Ileum
  IC50: 31 nM
Guinea Pig Ileum; human β-endorphin = 100
  Relative Potency: 100
5-HTP Diarrhea; 0.43 μmoles/kg iv
  % Inhibition of 5-HTP Diarrhea ± S.E.: 25.6 ± 16.1%
5-HTP Diarrhea; 0.86 μmoles/kg iv
  % Inhibition of 5-HTP Diarrhea ± S.E.: 46.6 ± 16.0%
5-HTP Diarrhea; 1.0 μmoles/kg sc
  % Inhibition of 5-HTP Diarrhea ± S.E.: 35.3 ± 14.2%
5-HTP Diarrhea; 1.73 μmoles/kg iv
  % Inhibition of 5-HTP Diarrhea ± S.E.: 58.3 ± 12.6%
5-HTP Diarrhea; 3.0 μmoles/kg sc
  % Inhibition of 5-HTP Diarrhea ± S.E.: 51.7 ± 9.9%
5-HTP Diarrhea; 3.46 μmoles/kg iv
  % Inhibition of 5-HTP Diarrhea ± S.E.: 62.2 ± 10.3%
5-HTP Diarrhea; 6.0 μmoles/kg sc
  % Inhibition of 5-HTP Diarrhea ± S.E.: 61.0 ± 6.9%
5-HTP Diarrhea; 6.92 μmoles/kg iv
  % Inhibition of 5-HTP Diarrhea ± S.E.: 66.4 ± 8.0%
5-HTP Diarrhea; 9.0 μmoles/kg sc
  % Inhibition of 5-HTP Diarrhea ± S.E.: 70.3 ± 8.7%
5-HTP Diarrhea; 13.84 μmoles/kg iv
  % Inhibition of 5-HTP Diarrhea ± S.E.: 92.2 ± 4.8%
5-HTP Diarrhea; [3]
  Anti-Diarrhea ED50 ± S.E.: 1.42 ± 0.636 µmol/kg
5-HTP Diarrhea; sc, 1 minute prior to 10 mg/kg 5-HTP ip
  Anti-Diarrhea ED50 ± S.E.: 2.65 ± 1.425 µmol/kg

## [D-Thr^2, Thz^5 ]-enkephalinamide
[1]
  analgesic activity (in words): potent analgesic agents
